Data: patent US9910034B2, “Methods and compositions for phototransfer” (AmberGen, Inc., priority 2007, dated 2018)

Target: T1, protein kinase Cα (PKCα) (Homo sapiens, UniProt P17252)
T1 construct: isolate and photo-release endogenous PKCα from the undiluted detergent fractionated HeLa cell extracts; endogenous in cells; host or cells: HeLa cells (ATCC)
Assay: PMA mediated PKCα sub-cellular translocation measured by kinase activity after isolation with photocleavable antibodies
Format: cell-based
Details: cultured HeLa cells stimulated with 200 nM PMA for 5 min; detergent fractionated; based on kinase activity of photocleavable antibody isolated protein; n=4
Procedure: FIG. 20. Phorbol ester (PMA) mediated protein kinase Cα (PKCα) sub-cellular translocation as measured by functional activity following isolation with photocleavable antibodies. Cultured HeLa cells were stimulated with 200 nM PMA for 5 min and detergent fractionated into the cytosol and membrane compartments prior to isolation and purification with the photocleavable antibodies.
Cultured HeLa cells (ATCC; Manassas, Va.) were stimulated for 5 min with 200 nM Phorbol-12-Myristate-13-Acetate (PMA; EMD Biosciences, Inc., San Diego, Calif.) and subsequently detergent fractionated into sub-cellular compartments according to reported procedures [Ramsby et al. (1994) Electrophoresis 15, 265-277; Ramsby & Makowski. (1999) Methods Mol Biol 112, 53-66; Chiang et al. (2000) J Biochem Biophys Methods 46, 53-68]. PMA is a potent activator of PKCα and is well known to cause translocation of the kinase from the cytosolic to the membrane sub-cellular compartments [Ross & Joyner. (1997) Endothelium 5, 321-332; Bazan & Rapoport. (1996) J Pharmacol Toxicol Methods 36, 87-95; Yazlovitskaya Melnykovych. (1995) Cancer Lett 88, 179-183]. […]

Q: With `CCCCCCCCCCCCCC(=O)O[C@@H]1[C@@H](C)[C@@]2(O)[C@@H](C=C(CO)C[C@]3(O)C(=O)C(C)=C[C@@H]23)[C@@H]2C(C)(C)[C@]12OC(C)=O` [PMA, Phorbol-12-Myristate-13-Acetate] as the compound, how does the “relative sub-cellular distribution of PKCα, cytosol” value read?
A: 16±4%

Q: What about the “relative sub-cellular distribution of PKCα, membrane” value of the same compound?
A: 84±3%
